From article PMC7736581, “Activation of the IRE1 RNase through remodeling of the kinase front pocket by ATP-competitive ligands” (Nature Communications, 2020) come the findings set out here.

The test system of assay [1] is T1, IRE1 (endogenous, KMS-11).
T1 construct: endogenous full-length in KMS-11 cells
As to the kind of experiment: cells. The arrangement: XBP1s mRNA by branched DNA assay in KMS-11 cell lysates after compound treatment. The settings on record: Homo sapiens, KMS-11, 4 h. How it is done: 15-20k KMS-11 cells in RPMI growth media were seeded into 96-well plates and treated with compounds or DMSO control over a period of 4 h the following day. RNA levels of XBP1s and DGAT2 in KMS-11 cell lysates were measured using the QuantiGene 2.0 bDNA assay technology (Thermofisher). See Supplementary Table 4 for sequences of relevant capture probes. Data analysis was carried out against an assay background control with no cell lysate (no-RNA control). In the case of AMG-18, cells were also stimulated with thapsigargin (Tg, 100 nM) 30 min after compound addition. No Tg was used when treating cells with all other compounds. Samples were run in duplicate. To investigate whether this peculiar conformation had any role in the mechanism of activation of G-1749, we evaluated different tails to substitute the ethyl carbamate on the naphthyl moiety (Fig. 3, Supplementary Table 2). […] This is likely due to clashes with residues lining the front pocket, which in turn would force the tails to occupy the back pocket and break the salt bridge, thereby causing RNase inhibition. […] Experiments in KMS-11 cells (Fig. 3b, c, right panels) confirmed the effect of these tail modifications on IRE1 RNase activation. […] The chemical substituents tolerated by the front pocket seem to be very limited: even a minor substitution of the carbamate oxygen atom to a larger [compound left out], from ethyl carbamate to propyl amide (compound 6), or from methyl carbamate to methyl or ethyl amide (compound 4 or 5, respectively), or increasing the tail length by one atom, from ethyl to propyl carbamate (compound 11), is enough to impart a switch from activation to inhibition (Fig. 3b, c). […] RNA cleavage was measured by a kinetic fluorescence assay using an XBP1-like RNA hairpin substrate and IRE1 LKR construct (Q470-L977). Background from the no-protein control was subtracted from signal before calculating fold change. Source data are provided as a Source Data file. Data are presented as the mean for measurements from two independent experiments (n = 2). c RNA levels for IRE1 RNase product XBP1s measured by bDNA assay of lysates from KMS-11 cells treated with compounds for 4 h. Background from the no-RNA control was subtracted from signal before calculating fold change. Source data are provided as a Source Data file. Data are presented as the mean for measurements from two independent experiments (n = 2). d, e Analytical Ultracentrifugation sedimentation velocity (SV-AUC) experiments for (d), IRE1 LKR (Q470-L977) unphosphorylated and autophosphorylated and (e), IRE1 LKR unphosphorylated in the presence of slight excess G-9807 and G-1749. Calculated sedimentation coefficients for IRE1 monomer (3.1 svedbergs) and dimer (4.6 svedbergs) are highlighted by dotted lines. Source data are provided as a Source Data file.

Assay [2] has as its target Inositol-Requiring Enzyme 1 (IRE1) (Homo sapiens, UniProt O75460). As to the kind of experiment: biochemical. On the set-up: gene ERN1; IRE1 cytoplasmic kinase-RNase construct; kinetic fluorescence RNA cleavage (FAM/BHQ XBP1 stem-loop) by IRE1 LKR Q470-L977. How it is done: A 5′-Carboxyfluorescein (FAM)-and 3′-Black Hole Quencher (BHQ)-labeled single stem-loop mini-substrate containing XBP1 sequence (sequence reported in Supplementary Table 4) was used as substrate for cleavage by IRE1 LKR (Q470-L977) or IRE1 KR (G547-L977) in 20 mM HEPES pH 7.5, 50 mM potassium acetate, 1 mM magnesium acetate, 1 mM dithiothreitol, 0.05% v/v TritonX-100. Concentrations were as follows: 8 nM IRE1 LKR and 200 nM RNA substrate; 22 nM IRE1 KR-0P and 200 nM RNA substrate; 2 nM IRE1 KR 3P and 500 nM RNA substrate. RNA cleavage was measured kinetically over an hour at room temperature as an increase in fluorescence. The final reaction was carried out in 20 µL in 384-well plates. Samples were run in duplicate. To investigate whether this peculiar conformation had any role in the mechanism of activation of G-1749, we evaluated different tails to substitute the ethyl carbamate on the naphthyl moiety (Fig. 3, Supplementary Table 2). […] This is likely due to clashes with residues lining the front pocket, which in turn would force the tails to occupy the back pocket and break the salt bridge, thereby causing RNase inhibition. […] Experiments in KMS-11 cells (Fig. 3b, c, right panels) confirmed the effect of these tail modifications on IRE1 RNase activation. […] The chemical substituents tolerated by the front pocket seem to be very limited: even a minor substitution of the carbamate oxygen atom to a larger [compound left out], from ethyl carbamate to propyl amide (compound 6), or from methyl carbamate to methyl or ethyl amide (compound 4 or 5, respectively), or increasing the tail length by one atom, from ethyl to propyl carbamate (compound 11), is enough to impart a switch from activation to inhibition (Fig. 3b, c). […] RNA cleavage was measured by a kinetic fluorescence assay using an XBP1-like RNA hairpin substrate and IRE1 LKR construct (Q470-L977). Background from the no-protein control was subtracted from signal before calculating fold change. Source data are provided as a Source Data file. Data are presented as the mean for measurements from two independent experiments (n = 2). c RNA levels for IRE1 RNase product XBP1s measured by bDNA assay of lysates from KMS-11 cells treated with compounds for 4 h. Background from the no-RNA control was subtracted from signal before calculating fold change. Source data are provided as a Source Data file. Data are presented as the mean for measurements from two independent experiments (n = 2). d, e Analytical Ultracentrifugation sedimentation velocity (SV-AUC) experiments for (d), IRE1 LKR (Q470-L977) unphosphorylated and autophosphorylated and (e), IRE1 LKR unphosphorylated in the presence of slight excess G-9807 and G-1749. Calculated sedimentation coefficients for IRE1 monomer (3.1 svedbergs) and dimer (4.6 svedbergs) are highlighted by dotted lines. Source data are provided as a Source Data file.

For assay [3], the target named is IRE1 LKR (Q470-L977), autophosphorylated (human) (UniProt O75460). Put plainly: AUC; sedimentation velocity; IRE1 LKR at 3.3, 10 and 30 µM without compound; 25 mM HEPES pH 7.5, 250 mM NaCl, 1 mM TCEP; 20 °C, 45,000 rpm, A280; fit to a monomer-dimer equilibrium model (Sedanal); monomer to dimer.
The target in assay [4] is IRE1 LKR (Q470-L977), unphosphorylated (human) (UniProt O75460). As to the kind of experiment: AUC; sedimentation velocity; unphosphorylated IRE1 LKR at 3.3, 10 and 30 µM with a slight (ca. 15% molar) excess of G-9807 (4, 12, 35 µM); 25 mM HEPES pH 7.5, 250 mM NaCl, 1 mM TCEP; 20 °C; fit to a monomer-dimer equilibrium model; monomer to dimer.
Where [5] appears, read: XBP1s mRNA decrease, read-out: EC50 (KMS-11 bDNA assay, XBP1s), inhibitors.
Setting [6] is: RNase inhibition, inhibitor, read-out: EC50 (RNase biochemical assay), inhibitors.
The mark [7] stands for this setting: XBP1s mRNA increase, read-out: EC50 (KMS-11 bDNA assay, XBP1s), activators.
Where [8] appears, read: RNase activation, read-out: EC50 (RNase biochemical assay), activators.
Setting [9] is: RNase inhibition, read-out: EC50 (RNase biochemical assay), inhibitors.

Read-outs that look alike come from different tables or passages of the source.

Chain of Inositol-Requiring Enzyme 1 (IRE1) (O75460 547-977): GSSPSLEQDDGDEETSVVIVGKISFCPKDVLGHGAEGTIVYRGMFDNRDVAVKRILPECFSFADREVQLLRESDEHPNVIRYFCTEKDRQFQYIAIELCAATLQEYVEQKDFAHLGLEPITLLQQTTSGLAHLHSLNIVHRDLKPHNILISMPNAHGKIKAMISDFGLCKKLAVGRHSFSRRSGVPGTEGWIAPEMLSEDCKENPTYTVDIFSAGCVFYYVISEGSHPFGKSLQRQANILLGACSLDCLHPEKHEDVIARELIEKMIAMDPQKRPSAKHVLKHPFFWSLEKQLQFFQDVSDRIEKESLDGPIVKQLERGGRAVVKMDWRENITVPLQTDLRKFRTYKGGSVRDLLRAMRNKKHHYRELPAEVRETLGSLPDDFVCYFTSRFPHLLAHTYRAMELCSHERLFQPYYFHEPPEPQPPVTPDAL

With `Cc1ccc2c(NC(=O)OC(C)C)cccc2c1Oc1ncccc1-c1ccnc(N[C@H]2CCCNC2)n1` [compound 7, 7], the EC50 was 456 ± 226 nM in assay [1] (setting [5]) and 36 ± 5 nM in assay [2] (setting [6]).
With `Cc1ccc2c(N)cccc2c1Oc1ncccc1-c1ccnc(N[C@H]2CCCNC2)n1` [compound 3, 3], the EC50 in assay [1] (setting [7]) worked out at 3260 ± 480 nM; in assay [2] (RNase activation, activator, read-out: EC50 (RNase biochemical assay), activators), 31 ± 23 nM.
As to `COC(=O)Nc1cccc2c(Oc3ncccc3-c3ccnc(N[C@H]4CCCNC4)n3)c(C)ccc12` [compound 2], the EC50 in assay [1] (setting [7]) worked out at 3370 ± 709 nM; in assay [2] (setting [8]) it was 4 ± 4 nM.
In the case of `Cc1ccc2c(NC(=O)C#CCC(C)(C)C)cccc2c1Oc1ncccc1-c1ccnc(N[C@H]2CCCNC2)n1` [compound 12, 12], the results for the EC50 in assay [1] (setting [5]) and in assay [2] (setting [6]) were 645 ± 111 nM and 52 ± 12 nM, respectively.
Regarding `CCCOC(=O)Nc1cccc2c(Oc3ncccc3-c3ccnc(N[C@H]4CCCNC4)n3)c(C)ccc12` [compound 11], the EC50 in assay [1] (setting [5]) was determined as 234 ± 78 nM; in assay [2] (setting [9]), 29 ± 6 nM.
The matching figures for `CCCC(=O)Nc1cccc2c(Oc3ncccc3-c3ccnc(N[C@H]4CCCNC4)n3)c(C)ccc12` [compound 6]: 221 ± 52 nM and 22 ± 35 nM.
Regarding `Cc1ccc2c(NC(=O)OCC(C)(C)C)cccc2c1Oc1ncccc1-c1ccnc(N[C@H]2CCCNC2)n1` [compound 9, 9], the EC50 in assay [1] (setting [5]) was found to be 1050 ± 372 nM; in assay [2] (setting [6]), 68 ± 21 nM.
Take “IRE1 LKR (Q470-L977), autophosphorylated (from UniProt O75460 470-977) (domain or fragment)”: in assay [3], the Kd came out at 67000 nM and the stoichiometry N was determined as 2.
On to `CC(=O)Nc1cccc2c(Oc3ncccc3-c3ccnc(N[C@H]4CCCNC4)n3)c(C)ccc12` [compound 4], for which the concentration giving a half-maximal response (EC50) in assay [1] (setting [5]) came to 649 ± 241 nM; in assay [2] (setting [9]), 8 ± 2 nM.
For `Cc1ccc2c(NC(=O)OCC(C)C)cccc2c1Oc1ncccc1-c1ccnc(N[C@H]2CCCNC2)n1` [compound 8, 8], the values for the EC50 in assay [1] (setting [5]) and in assay [2] (setting [6]) were 465 ± 154 nM and 18 ± 3 nM, respectively.
“IRE1 LKR (Q470-L977), unphosphorylated (from UniProt O75460 470-977) (domain or fragment)”: the stoichiometry N in assay [4] was 2.
Consider `CCC(=O)Nc1cccc2c(Oc3ncccc3-c3ccnc(N[C@H]4CCCNC4)n3)c(C)ccc12` [compound 5], for which the 50% effective concentration (EC50) in assay [1] (setting [5]) amounted to 816 ± 346 nM; in assay [2] (setting [9]) it was 28 ± 5 nM.
Take `C/C=C/C(=O)Nc1cccc2c(Oc3ncccc3-c3ccnc(N[C@H]4CCCNC4)n3)c(C)ccc12` [compound 1]: the EC50 in assay [1] (setting [7]) is 331 ± 128 nM; in assay [2] (setting [8]) it was 7 ± 1 nM.
Regarding `Cc1ccc2c(NC(=O)C#CC(C)(C)C)cccc2c1Oc1ncccc1-c1ccnc(N[C@H]2CCCNC2)n1` [compound 10, 10], the EC50 was 380 ± 109 nM in assay [1] (setting [5]) and 35 ± 5 nM in assay [2] (setting [6]).

As a reminder, the EC50 is the concentration that produces a half-maximal response. A word on the Kd: it is the equilibrium constant for the complex coming apart. A low value points to a tighter complex. As a reminder, the stoichiometry N is the number of molecules, sites or subunits per partner or assembly.
